Consider 23 compounds from US20190031599A1, “INDANE DERIVATIVES AS MGLUR7 MODULATORS” (Takeda Pharmaceutical Company Limited, priority 2016, published 2019).

Where a name gives a salt, the structure may show the parent alone.

For this test, the target named is T1, human mGluR7 (Homo sapiens, UniProt Q14831).
T1 construct: expressed in transfected cells
The test can be described thus: mGluR7 assay: CRE-directed luciferase reporter gene assay, reduction of forskolin stimulated cAMP production. Type of test: cell-based. Particulars: stable CHO cell line expressing the CRE-luc reporter and human mGluR7 genes; decrease of forskolin stimulated luminescence; 10-point concentration-response, duplicate wells. The gist of the method: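 Stable CHO cell line co-expressing human mGluR7 and a CRE-luciferase reporter; compounds preincubated 15 min at 37 °C, then forskolin added and incubated 5 h at 37 °C. 10-point half-log concentration-response in duplicate, normalised to forskolin-alone (max) and forskolin plus tool mGluR7 agonist (min) controls.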
(In general: Reporter assays use an easily measured gene product as a stand-in for the process of interest.)

T1 sequence (Q14831 35-915): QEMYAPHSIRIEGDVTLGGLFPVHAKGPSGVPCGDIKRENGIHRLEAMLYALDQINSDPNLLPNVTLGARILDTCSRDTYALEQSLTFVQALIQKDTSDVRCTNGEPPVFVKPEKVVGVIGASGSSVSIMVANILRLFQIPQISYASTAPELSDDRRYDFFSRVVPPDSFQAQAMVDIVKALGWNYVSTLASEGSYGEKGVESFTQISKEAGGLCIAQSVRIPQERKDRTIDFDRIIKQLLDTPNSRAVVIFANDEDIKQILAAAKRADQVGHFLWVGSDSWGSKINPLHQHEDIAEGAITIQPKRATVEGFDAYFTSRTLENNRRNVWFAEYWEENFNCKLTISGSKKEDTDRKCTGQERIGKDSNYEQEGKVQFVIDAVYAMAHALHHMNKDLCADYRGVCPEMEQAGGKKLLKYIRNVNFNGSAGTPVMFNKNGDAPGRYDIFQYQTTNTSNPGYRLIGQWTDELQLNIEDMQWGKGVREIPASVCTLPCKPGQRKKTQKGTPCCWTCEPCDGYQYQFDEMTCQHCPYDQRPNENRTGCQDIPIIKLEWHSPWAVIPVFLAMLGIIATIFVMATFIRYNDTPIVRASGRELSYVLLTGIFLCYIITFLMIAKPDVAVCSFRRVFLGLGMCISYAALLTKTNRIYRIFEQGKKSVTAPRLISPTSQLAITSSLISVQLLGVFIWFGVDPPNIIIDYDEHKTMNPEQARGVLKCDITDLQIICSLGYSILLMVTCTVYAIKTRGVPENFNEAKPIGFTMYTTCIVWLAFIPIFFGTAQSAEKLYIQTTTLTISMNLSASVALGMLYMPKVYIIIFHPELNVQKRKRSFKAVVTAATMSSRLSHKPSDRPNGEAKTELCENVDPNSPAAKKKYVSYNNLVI

In turn, `N[C@H]1c2ccccc2C[C@@H]1NC(=O)C(c1ccc(F)cc1F)N1CC(F)(F)C1` (stereo partly drawn) [Example 103, N-[(1S,2S)-1-amino-2,3-dihydro-1H-inden-2-yl]-2-(3,3-difluoroazetidin-1-yl)-2-(2,4-difluorophenyl)acetamide formate] had an EC50 of 218 nM. In the case of `COC1CN(C(C(=O)N[C@H]2Cc3ccccc3[C@@H]2NC(=O)OC(C)(C)C)c2ccc(F)cc2F)C1` (stereo partly drawn) [Example 104, tert-butyl N-[(1S,2S)-2-[2-(2,4-difluorophenyl)-2-(3-methoxyazetidin-1-yl)acetamido]-2,3-dihydro-1H-inden-1-yl]carbamate] it was 12 nM; in that of `N[C@H]1c2ccccc2C[C@@H]1NC(=O)C(c1ccc(F)cc1F)N1CC(F)C1` (stereo partly drawn) [Example 105, N-[(1S,2S)-1-amino-2,3-dihydro-1H-inden-2-yl]-2-(2,4-difluorophenyl)-2-(3-fluoroazetidin-1-yl)acetamide], 146 nM; in that of `N[C@H]1c2ccccc2C[C@@H]1NC(=O)C(c1ccc(F)cc1F)N1CCC1` (stereo partly drawn) [Example 108, N-[(1S,2S)-1-amino-2,3-dihydro-1H-inden-2-yl]-2-(azetidin-1-yl)-2-(2,4-difluorophenyl)acetamide], 190 nM.

The compound `COC1CN(C(C(=O)N[C@H]2Cc3ccccc3[C@@H]2N)c2ccc(F)cc2F)C1` (stereo partly drawn) [Example 111, N-[(1S,2S)-1-amino-2,3-dihydro-1H-inden-2-yl]-2-(2,4-difluorophenyl)-2-(3-methoxyazetidin-1-yl)acetamide] had a concentration giving a half-maximal response (EC50) of 135 nM. In the case of `C[C@H](C(=O)N[C@@H]1Cc2ccccc2[C@H]1N1CC(F)C1)c1ccc(F)cc1` [Example 112, (2S)—N-[(1R,2R)-1-(3-fluoroazetidin-1-yl)-2,3-dihydro-1H-inden-2-yl]-2-(4-fluorophenyl)propanamide] it was 11 nM; in that of `C[C@H](C(=O)N[C@@H]1Cc2ccccc2[C@H]1S(C)(=O)=O)c1ccc(F)cc1` [Example 113, (2S)-2-(4-fluorophenyl)-N-[(1R,2R)-1-methanesulfonyl-2,3-dihydro-1H-inden-2-yl]propanamide], 38 nM; in that of `C[C@H](C(=O)N[C@H]1Cc2ccccc2[C@@H]1N(Cc1ncco1)Cc1ncco1)c1ccc(F)cc1F` [Example 114, (2S)—N-[(1S,2S)-1-{bis[(1,3-oxazol-2-yl)methyl]amino}-2,3-dihydro-1H-inden-2-yl]-2-(2,4-difluorophenyl)propanamide], 101 nM.

`N[C@H]1c2ccccc2C[C@@H]1NC(=O)C(c1ccc(F)cc1F)N1CC(OC(F)F)C1` (stereo partly drawn) [Example 119, N-[(1S,2S)-1-amino-2,3-dihydro-1H-inden-2-yl]-2-[3-(difluoromethoxy)azetidin-1-yl]-2-(2,4-difluorophenyl)acetamide]: the response was half-maximal at 63 nM (EC50).

As for `N[C@H]1c2ccccc2C[C@@H]1NC(=O)C1(c2ccccc2)CCNC1` (stereo partly drawn) [Example 120, N-[(1S,2S)-1-amino-2,3-dihydro-1H-inden-2-yl]-3-phenylpyrrolidine-3-carboxamide], the EC50 was found to be 3320 nM. In the case of `CC(C)(C)OC(=O)N[C@H]1c2ccccc2C[C@@H]1NC(=O)C1(c2ccccc2)CNC(=O)C1` (stereo partly drawn) [Example 121, tert-butyl N-[(1S,2S)-2-(5-oxo-3-phenylpyrrolidine-3-amido)-2,3-dihydro-1H-1-inden-1-yl]carbamate] it was 42 nM; in that of `N[C@H]1c2ccccc2C[C@@H]1NC(=O)C1(c2ccccc2)CNC(=O)C1` (stereo partly drawn) [Example 122, N-[(1S,2S)-1-amino-2,3-dihydro-1H-inden-2-yl]-5-oxo-3-phenylpyrrolidine-3-carboxamide], 485 nM; in that of `CC(C)(C)OC(=O)N[C@H]1c2ccccc2C[C@@H]1NC(=O)C1(c2ccccc2)CC(=O)C1` [Example 123, tert-butyl N-[(1S,2S)-2-(3-oxo-1-phenylcyclobutaneamido)-2,3-dihydro-1H-inden-1-yl]carbamate], 68 nM. In the case of `C[C@H](C(=O)N[C@H]1Cc2ccccc2[C@@H]1S(C)(=O)=O)c1ccc(F)cc1` [Example 132, (2S)-2-(4-fluorophenyl)-N-[(1S,2S)-1-methanesulfonyl-2,3-dihydro-1H-inden-2-yl]propanamide] it was 5 nM. With `C[C@H](C(=O)N[C@H]1Cc2ccccc2[C@@H]1Nc1ncccn1)c1ccc(F)cc1F` [Example 133, (2S)-2-(2,4-difluorophenyl)-N-[(1S,2S)-1-[(pyrimidin-2-yl)amino]-2,3-dihydro-1H-inden-2-yl]propanamide] the figure was 178 nM.

Compound `CCN[C@H]1c2ccccc2C[C@@H]1NC(=O)[C@@H](C)c1ccc(F)cc1` [Example 134, (2S)—N-[(1S,2S)-1-(ethylamino)-2,3-dihydro-1H-inden-2-yl]-2-(4-fluorophenyl)propanamide] had an EC50 of 86 nM. In the case of `CC(C(=O)N[C@H]1Cc2ccccc2[C@@H]1NC(=O)OC(C)(C)C)c1ccc(OC(F)F)cc1` (stereo partly drawn) [Example 151, tert-butyl N-[(1S,2S)-2-{2-[4-(difluoromethoxy)phenyl]propanamido}-2,3-dihydro-1H-inden-1-yl]carbamate] it was 441 nM.

Regarding `COc1cc(F)ccc1C(C)C(=O)N[C@H]1Cc2ccccc2[C@@H]1NC(=O)OC(C)(C)C` (stereo partly drawn) [Example 152, tert-butyl N-[(1S,2S)-2-[2-(4-fluoro-2-methoxyphenyl)propanamido]-2,3-dihydro-1H-inden-1-yl]carbamate], the EC50 was 183 nM. With `CC(C(=O)N[C@H]1Cc2ccccc2[C@@H]1NC(=O)OC(C)(C)C)c1ccc(F)cc1Cl` (stereo partly drawn) [Example 153, tert-butyl N-[(1S,2S)-2-[2-(2-chloro-4-fluorophenyl)propanamido]-2,3-dihydro-1H-inden-1-yl]carbamate] the figure was 63 nM; with `CC(C(=O)N[C@H]1Cc2ccccc2[C@@H]1NC(=O)OC(C)(C)C)c1ccc(F)cc1C(F)(F)F` (stereo partly drawn) [Example 154, tert-butyl N-[(1S,2S)-2-{2-[4-fluoro-2-(trifluoromethyl)phenyl]propanamido}-2,3-dihydro-1H-inden-1-yl]carbamate], 326 nM; with `CN[C@@H]1c2ccccc2C[C@H]1NC(=O)[C@H](C)c1ccc(F)cc1` [Example 155, (2R)-2-(4-fluorophenyl)-N-[(1R,2R)-1-(methylamino)-2,3-dihydro-1H-inden-2-yl]propanamide], 2220 nM. With `CN[C@H]1c2ccccc2C[C@@H]1NC(=O)[C@H](C)c1ccc(F)cc1` [Example 157, (2R)-2-(4-fluorophenyl)-N-[(1S,2S)-1-(methylamino)-2,3-dihydro-1H-inden-2-yl]propanamide] the figure was 1380 nM; with `CN[C@@H]1c2ccccc2C[C@@H]1NC(=O)[C@@H](C)c1ccc(F)cc1` [Example 160, (2S)-2-(4-fluorophenyl)-N-[(1R,2S)-1-(methylamino)-2,3-dihydro-1H-inden-2-yl]propanamide], 5940 nM.

By EC50 is commonly meant the concentration needed to bring the measured effect to its halfway point. A lower EC50 goes with a more potent agent.
